Experimental data taken from publication PMC8696986, “Synthesis and evaluation of 3′-[^18F]fluorothymidine-5′-squaryl as a bioisostere of 3′-[^18F]fluorothymidine-5′-monophosphate” (RSC Advances, 2021).
Like-named read-outs stand apart in the source and are kept apart here.

Assays:
[1] = parameters: method as in PMID 12217356, PMID 27319940; conditions: cited from earlier work
[2] = cited from earlier work
[3] = In vitro metabolite analysis in human liver microsomes; type: in vitro ADME; conditions: HLM, 37 °C, over 60 min
Protocol: A published method for performing in vitro metabolite analysis using liver microsomes was adapted.[35] [^18F]SqFLT (40 μL, 3.5 MBq) was added to human liver microsomes (50 μL, 1 mg mL^−1), NADPH regeneration system A (50 μL), NADPH regeneration system B (10 μL) and PBS (400 μL, 0.1 M) in a 1.5 mL microcentrifuge tube. The mixture was gently vortexed and incubated in aerobic conditions at 37 °C with gentle shaking for either 30 min or 60 min using a thermomixer. The mixture was transferred into a 15 mL plastic centrifuge tube and proteins were precipitated with ice-cold MeCN + 0.1% TFA (2 mL) and vortexed. Proteins were pelleted by centrifugation (12 000g, 3 min), and the supernatant removed and filtered (0.2 μm). The supernatant was diluted (1 : 9) with H2O + 0.1% TFA and injected onto a HPLC instrument bearing a 1 mL injection loop and PosiRam (LabLogic, Sheffield, UK) metabolite detector. Samples of a known volume were taken from the supernatant and the entire protein pellet were counted using an auto-gamma counter (Perkin Elmer, London, UK) to determine the extraction efficiency. All experiments were performed in triplicate (n = 3).
(§1) 6.0 Metabolite analysis in microsomes
Figure 31. Representative HPLC chromatograms showing A) parent [18F]SqFLT, and incubation of [18F]SqFLT with HLM for B) 30 mins and C) 60 mins. The extraction efficiency was 96.1 ± 0.4 %. […]

[4] = system: TK1 and ENT1/2 ([^18F]FLT uptake in HCT116 cells); test: In vitro competition assay between [^18F]FLT and thymidine/[^19F]SqFLT; type: cell-based, human
Protocol: HCT116 were plated and maintained at 60–70% confluence in complete media conditions as previously described. […] Treated cells were incubated at 37 °C for 20 min before [^18F]FLT was added to each well to yield a final concentration of 0.74 mBq per well. Cells were subsequently incubated in a humidified atmosphere of 5% CO2 for 1 h before being lysed and gamma counted as previously described.
as §1
Figure 31. Representative HPLC chromatograms showing A) parent [18F]SqFLT, and incubation of [18F]SqFLT with HLM for B) 30 mins and C) 60 mins.
The experiment was performed in triplicate (n = 3)
7.0 Gene structure and positions of CRISPR and PCR primers.
Figure 32. Diagram (not to scale) indicates overall gene structure and positions of the CRISPRS […]
8.0 Determining if [18F]SqFLT is a substrate for TK1 and ENT1/2 […]
and B) [19F]SqFLT to determine the effect on [18F]FLT uptake. HCT116 cells (at 60 – 70 % […]
for 20 min prior to co-incubation with [18F]FLT (0.74 MBq). Radioactive uptake normalised […]

[5] = biological target: T1, ABCB1 transporter (HCT116 cells) (Homo sapiens, UniProt P08183); test: Efflux assay with verapamil; type: cell-based; conditions: verapamil 3 μM, 1 h pre-incubation then 1 h co-incubation
T1 construct: endogenous in cells; host or cells: HCT116 cells
T1 sequence (P08183 whole entry): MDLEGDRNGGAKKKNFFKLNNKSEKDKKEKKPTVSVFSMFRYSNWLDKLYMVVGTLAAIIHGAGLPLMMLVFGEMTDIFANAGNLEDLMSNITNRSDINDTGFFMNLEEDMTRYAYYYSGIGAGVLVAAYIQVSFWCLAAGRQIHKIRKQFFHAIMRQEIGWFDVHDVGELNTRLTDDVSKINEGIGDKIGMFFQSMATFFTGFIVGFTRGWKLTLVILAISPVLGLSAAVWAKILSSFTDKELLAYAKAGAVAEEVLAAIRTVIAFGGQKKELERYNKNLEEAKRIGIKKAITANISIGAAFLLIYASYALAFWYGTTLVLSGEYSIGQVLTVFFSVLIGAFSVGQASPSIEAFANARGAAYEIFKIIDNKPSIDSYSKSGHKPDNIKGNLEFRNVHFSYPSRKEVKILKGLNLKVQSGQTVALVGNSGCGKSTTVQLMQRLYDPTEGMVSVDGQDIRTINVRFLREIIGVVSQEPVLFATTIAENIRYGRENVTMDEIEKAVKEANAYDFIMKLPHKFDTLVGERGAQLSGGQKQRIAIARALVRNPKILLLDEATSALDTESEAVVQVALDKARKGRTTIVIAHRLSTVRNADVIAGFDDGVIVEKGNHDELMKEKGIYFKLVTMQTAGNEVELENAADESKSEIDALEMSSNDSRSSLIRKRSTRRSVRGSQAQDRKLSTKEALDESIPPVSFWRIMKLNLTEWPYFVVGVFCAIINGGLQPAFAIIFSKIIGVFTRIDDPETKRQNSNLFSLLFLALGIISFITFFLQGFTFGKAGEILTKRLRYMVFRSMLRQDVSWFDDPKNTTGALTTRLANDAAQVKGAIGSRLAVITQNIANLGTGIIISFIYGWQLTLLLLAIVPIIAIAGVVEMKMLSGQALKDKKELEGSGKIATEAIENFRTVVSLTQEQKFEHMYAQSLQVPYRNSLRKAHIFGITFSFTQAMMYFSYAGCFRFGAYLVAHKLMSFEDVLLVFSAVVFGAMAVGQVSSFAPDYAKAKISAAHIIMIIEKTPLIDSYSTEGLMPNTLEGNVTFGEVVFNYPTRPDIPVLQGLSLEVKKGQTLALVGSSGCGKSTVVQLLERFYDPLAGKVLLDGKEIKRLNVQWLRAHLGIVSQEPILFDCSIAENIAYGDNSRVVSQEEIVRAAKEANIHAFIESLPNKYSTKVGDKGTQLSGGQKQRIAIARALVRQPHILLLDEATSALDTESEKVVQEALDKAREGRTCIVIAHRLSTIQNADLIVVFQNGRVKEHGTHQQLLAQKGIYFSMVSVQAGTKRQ
Protocol: HCT116 cells were plated and maintained at 60–70% confluence in complete media conditions as previously described. Following 24 h, cell media was aspirated and treated with media containing 3 μM verapamil for 1 h prior to co-incubation with 0.74 mBq of [^18F]SqFLT. Cells were subsequently incubated for a further 1 h before being lysed and gamma counted as previously described.
9.0 Determining if [18F]SqFLT is a substrate for multidrug resistance proteins
0.00 Control 1 h Verapamil
Figure 34. Uptake of [18F]SqFLT in HCT116 cells following treatment with Verapamil. HCT 116 cells were pre-incubated with Verapamil (3 µM) for 60 min followed by co-incubated with [18F]SqFLT (0.74 MBq). One-way Anova statistical analysis and Dunnets post hoc was performed for n = 5 samples.
10.0 Time activity curves (TAC)
Figure 35. Time-activity curves derived from region-of-interest analysis of PET imaging data (including detail of uptake kinetics between 0-5 min of [18F]SqFLT injection) in bladder, kidneys and gallbladder. Data represent mean ± SEM (n>5) and is expressed as % of injected […]
1 M. Yun, S. J. Oh, H. J. Ha, J. S. Ryu and D. H. Moon, Nucl. Med. Biol., 2003, 30, 151–
2 C. N. Tetzlaff, I. Schwope, C. F. Bleczinski, J. A. Steinberg and C. Richert, Tetrahedron
(also on this page, place not known: [18F]-SqFLT (% ID/mg protein) uptake of 4215–4218.)
(1 picture or pasted object on this page, not shown here)

[6] = system: WT HCT116 tumours; test: Dynamic PET imaging, WT HCT116 xenografts; type: in vivo, female BALB/c athymic nude mice
Protocol: (§2) Female BALB/c athymic nude mice (6–8 weeks old), injected subcutaneously with either mutant HCT116^shTMPK− or WT HCT116 (Charles River UK Ltd., Margate, UK) at 5 × 10^6 cells per mouse, using dynamic PET imaging (Fig. 5A). Inoculations were performed under 2% isoflurane/O2 anesthesia 7 days after animal arrival. All mice were aged 10–16 weeks with similar weight (20 ± 2 g) and kept under standard conditions in individually ventilated cages (maximum of 6 animals per cage) prior to experiments.
(§3) BALB/c mice (Charles River UK Ltd, Margate, UK) were anesthetized and scanned on a dedicated small animal PET scanner (G4 Genesis, Sofie Biosciences, Culver City, CA, USA) following a bolus injection of 0.75 MBq of [^18F]SqFLT via a lateral tail vein cannula. Imaging was performed under 2% isoflurane/O2 anaesthesia. After tracer injection, emission scans were acquired in list-mode format (over 0–60 min – dynamic scans) to give decay-corrected values of radioactivity accumulation in tissues. The collected data were reconstructed with a 3-dimensional maximum likelihood estimation method 3D ML-EM (Sofie Biosciences). Cumulative images of the data were used for visualization of radiotracer uptake and to define tissue volumes of interest (VOIs) using Siemens Inveon Research Workplace software (Siemens Molecular Imaging, Inc. Knoxville, USA). Tissue radioactivity uptake values were normalized to injected dose and mouse weight.

[7] = system: HCT116^shTMPK− tumours; test: Dynamic PET imaging, HCT116^shTMPK− xenografts; type: in vivo, female BALB/c athymic nude mice; conditions: mutant HCT116^shTMPK− xenograft, 2–10 min post-injection, PET time–activity curve
Protocol: as §2
as §3, with “Cumulative images of the data were used for visualization of radiotracer uptake and to define tissue volumes of interest (VOIs) using Siemens Inveon Research Workplace software (Siemens Molecular Imaging, Inc. Knoxville, USA).” left out

[8] = system: WT HCT116 cells; test: In vitro cell uptake of radiotracer in WT HCT116 cells; type: cell-based, human
Protocol: (§4) HCT116 (human colon cancer; LGC Standards, Teddington, Middlesex, UK) and subsequent knockdown HCT116^shTMPK− cells were cultured in Roswell Park Memorial Institute Medium 1640 supplemented with 10% foetal bovine serum, 2% Penicillin-Streptomycin (5000 U mL^−1) and 1% L-Glutamine. Cells were maintained in a 5% CO2 humidified incubator at 37 °C and grown in 6-well plates at 300 000 cells per well or 1 500 000 cells (per 15 cm petri dish for HPLC) for the stated cell lines. All cells were grown for 24 h in a volume of 2 mL per well or 10 mL per petri dish unless stated otherwise. All cells were maintained at 60–70% confluence prior to experiments, passaged in our laboratory for fewer than 6 months on receipt and were tested mycoplasma free. Experiments were performed using cells under 10 passages.
[^18F]SqFLT (0.74 mBq per well) was added to individual wells and cells were incubated at 37 °C in a humidified atmosphere of 5% CO2 for 15, 30, 60, 90 and 120 min. Following incubation, cells were washed three times with 1× PBS and lysed once ice for 15 min using RIPA buffer (1 mL per well). Cell lysates were homogenized and transferred to radioactivity counting tubes. Radioactivity in each sample was counted using an auto-gamma counter (Perkin Elmer, London, UK). Total protein per sample was quantified using the Pierce™ BCA protein assay method. Decay corrected counts were normalized to protein concentration as percentage incubated dose per milligram of cellular protein (%ID per mg protein) in each sample.

[9] = system: HCT116^shTMPK− cells; test: In vitro cell uptake of radiotracer in TMPK knockdown HCT116^shTMPK− cells; type: cell-based, human; conditions: 0.74 MBq, 60 min incubation, n = 6, mean ± SEM
Protocol: as §4
Guide RNA (gRNA) sequences for CRISPR/Cas9 were generated from CRISPR design web site (http://crispr.mit.edu/), provided by the Feng Zhang Lab.[33] […]
[^18F]SqFLT (0.74 mBq per well) was added to individual wells and cells were incubated at 37 °C in a humidified atmosphere of 5% CO2 for 15, 30, 60, 90 and 120 min. […] Cell lysates were homogenized and transferred to radioactivity counting tubes. Radioactivity in each sample was counted using an auto-gamma counter (Perkin Elmer, London, UK). Total protein per sample was quantified using the Pierce™ BCA protein assay method. […]

[10] = Log D7.5 determination (shake flask method); type: physicochemical; conditions: octanol/PBS pH 7.5, mean ± SD, n = 3
Protocol: The hydrophilicity of [^18F]SqFLT (>90% RCP) was determined experimentally by its Log D7.5 using the shake flask method. […] Being a highly hydrophilic molecule, we were sceptical that [^18F]SqFLT would be cell permeable and aimed to determine this experimentally in radioactive cell uptake experiments.
To a 1.5 mL microcentrifuge tube was added PBS pH 7.5 (500 μL) and octanol (500 μL). The tube was shaken for 15 min, followed by centrifugation (13 000g, 5 min). [^18F]SqFLT (3 MBq) in PBS (<5% EtOH) was added and the samples shaken for 30 min, followed by centrifugation (13 000g, 5 min). Aliquots from the octanol layer and PBS layer were removed (100 μL) and placed in counting tubes. Radioactivity was measured using a γ-counter and the partition coefficient was calculated using Log D7.5 = log10[Oct/PBS]. The Log D7.5 value was reported as mean ± SD (n = 3, triplicate analysis).

3′-[^18F]fluorothymidine-5′-monophosphate [[^18F]FLTMP]
monophosphate pKa ([1]; first value): 1.6 | monophosphate pKa ([1]; second value): 6.6

O=c1c(O)c(NCc2ccccc2)c1=O [3-(benzylamino)-4-hydroxycyclobut-3-ene-1,2-dione]
permeability ([2]; PAMPA): significantly higher permeability compared to a phosphate analogue | Log D7.4 ([2]; pH 7.4): −1.4

Cc1cn([C@H]2C[C@H]([18F])[C@@H](CNc3c(O)c(=O)c3=O)O2)c(=O)[nH]c1=O [[^18F]SqFLT, 3′-[^18F]fluorothymidine-5′-squaryl]
metabolism in human liver microsomes [3]: no metabolism over 60 min | dependence of uptake on TK1 and nucleoside transporters (ENT1/2) ([4]; inferred from competition of [^19F]SqFLT (1–10 μg mL^−1) with [^18F]FLT): independent of TK1 and nucleoside transporters (ENT1/2) | effect of verapamil on radiotracer uptake [5]: did not change radiotracer uptake | peak radiotracer uptake in tumour ([6]; WT HCT116 xenograft, 2–10 min post-injection, PET time–activity curve): 2.69 ± 0.12 % ID g^−1 | route of elimination ([6]; mice, PET time-activity curves): eliminated through the kidney, liver, and bladder | time of peak radiotracer uptake in tumour ([6]; post-injection, WT and mutant xenografts, 60 min dynamic PET scan): 2 to 10 min | peak radiotracer uptake in tumour [7]: 1.58 ± 0.12 % ID g^−1 | tracer uptake in vitro ([8]; HCT116 and HCT116^shTMPK− cells, as summed up in the abstract): < 0.3 % ID mg^−1 | uptake of [^18F]SqFLT ([8]; WT HCT116, 0.74 MBq, 60 min incubation, n = 6, mean ± SEM): 0.24 ± 0.04 % ID mg^−1 | drop of uptake ([8]; WT HCT116, between 15–120 min): 2 fold | time of peak uptake ([8]; WT HCT116, uptake kinetic profile over 120 min): 0 to 15 min | uptake of [^18F]SqFLT [9]: 0.14 ± 0.04 % ID g^−1 | logD [10]: -2.9 ± 0.24

Cc1cn([C@H]2C[C@H](F)[C@@H](CNc3c(O)c(=O)c3=O)O2)c(=O)[nH]c1=O [[^19F]SqFLT, 5′-amino-5′-N-(2-hydroxy-3,4-dioxocyclobuten-1-yl)-5′,3′-deoxy-3′-fluoro-thymidine]
effect on [^18F]FLT uptake ([4]; 10^−3–10^1 μg mL^−1, 20 min before [^18F]FLT, then 1 h): did not inhibit [^18F]FLT uptake
